Measured values taken from patent EP0580252A2, “Improvements in or relating to pectin methyl esterase” (QUEST INTERNATIONAL B.V., priority 1992, dated 1994).

How the values were obtained:
[1] = tested on: PMEs (papain PME, ficin PME and other known plant PMEs); assay: Inhibition of PME activity by galacturonic acid; type: biochemical; details: up to concentrations of 25 gl⁻¹
[2] = tested on: papain PME; assay: Effect of methanol (reaction product) on PME activity; type: biochemical, papaya; details: methanol concentration not stated
[3] = tested on: ficin derived PME (pectin methyl esterase); assay: Inhibition test with tyrosine selective inhibitor N-acetyl-imidazole; type: biochemical, fig; details: NAI 1.4mg.100 ml; 1% pectin; enzyme 0.005-0.088%
Experimental: (§1) Bacterial and plant derived PMEs were tested for inhibition by N-acetyl-imidazole (NAI), a tyrosine selective inhibitor.
(§2) Inhibition by N-acetyl-imidazole was carried out in three different ways: by addition of the NAI to enzyme solution, to pectin solution, and to mixed enzyme and substrate. Typically we used 1% pectin (5% for papain also), enzyme concentrations of 0.005-0.088% and NAI concentrations of 1.4mg.100 ml.

[4] = tested on: papain derived PME (pectin methyl esterase); assay: as above; type: biochemical, papaya; details: NAI 1.4mg.100 ml; 1% pectin (5% for papain also); enzyme 0.005-0.088%
Experimental: as §1, §2

[5] = tested on: bromelain derived PME (pectin methyl esterase); assay: as above; type: biochemical, bromelard; details: NAI 1.4mg.100 ml; 1% pectin; enzyme 0.005-0.088%
Experimental: as §1, §2

[6] = tested on: tomato PME; assay: as above; type: biochemical; details: NAI 1.4mg.100 ml; 1% pectin; enzyme 0.005-0.088%
Experimental: as §1, §2

[7] = tested on: orange PME; assay: as above; type: biochemical; details: NAI 1.4mg.100 ml; 1% pectin; enzyme 0.005-0.088%
Experimental: as §1, §2

[8] = tested on: WGL (wheat germ lipase) derived PME (pectin methyl esterase); assay: as above; type: biochemical; details: NAI 1.4mg.100 ml; 1% pectin; enzyme 0.005-0.088%
Experimental: as §1, §2

[9] = tested on: bacterial PMEs; assay: as above; type: biochemical; details: NAI 1.4mg.100 ml; 1% pectin; enzyme 0.005-0.088%
Experimental: as §1, §2

galacturonic acid
inhibition by galacturonic acid [1]: None of the PMEs is inhibited

CO [methanol]
inhibition by methanol ([2]; 1% pectin): inhibited
inhibition by methanol ([2]; 5% pectin): hardly noticed
inhibition by methanol [2]: under certain conditions is inhibited and YES

CC(=O)n1ccnc1 [NAI, N-acetyl-imidazole]
inhibition by NAI [3]: not to be inhibited
inhibition by NAI [4]: not to be inhibited
inhibition by NAI [5]: not to be inhibited
inhibition by NAI [6]: inhibited
inhibition by NAI [7]: inhibited
inhibition by NAI [8]: not to be inhibited
inhibition by NAI [9]: inhibited
